Source: patent publication US8017612B2, “Piperazine compound and use thereof as a HCV polymerase inhibitor” (priority 2006, dated 2011)

Assays:
[1] = target: T1, HCV polymerase (NS5B) type 1b (Hepatitis C virus genotype 1b, UniProt P26663); test: Assay of enzyme (HCV polymerase) inhibitory activity, type 1b enzyme; assay type: biochemical, HCV BK strain (type 1b)
T1 construct: a region encoding NS5B (J Virol 1991 March, 65(3), 1105-13, 544 amino acids after deletion of 47 amino acids on the C-terminal); 6xHis (C); made in house; host or cells: Escherichia coli
Method in brief: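 Rxn: NS5B 1b (BK, ΔC47, His6) 0.5 μg/ml; substrate RNA 5 μg/ml; ATP/GTP/CTP 50 μM, UTP 2 μM + [5,6-3H]UTP; 20 mM Tris pH 7.5, 5 mM MgCl2, 50 mM NaCl, 1 mM EDTA/DTT. 25 °C, 60 min. Stop with TCA/pyrophosphate, filter, scintillation count; IC50 vs. untreated.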

[2] = target: T2, HCV polymerase (NS5B) type 1a (Hepatitis C virus genotype 1a, UniProt P26664); test: Assay of enzyme (HCV polymerase) inhibitory activity, type 1a enzyme; assay type: biochemical, HCV type 1a (cloned from the blood of patients)
T2 construct: made in house; host or cells: Escherichia coli (by the 'similar method' of the 1b enzyme)
Method in brief: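 NS5B Δ47 C-term His6 (type 1a, 1.5 μg/ml); substrate RNA 5 μg/ml; ATP/GTP/CTP 50 μM, UTP 2 μM + [5,6-3H]UTP; Tris pH 7.5, MgCl2 5 mM; 25° C, 60 min. TCA/pyrophosphate stop, GF/B filter, scintillation. IC50 vs no-compound control.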

[3] = HCV polymerase inhibitory activity IC50, 1b, type 1b enzyme
[4] = HCV polymerase inhibitory activity IC50, 1a, type 1a enzyme
[5] = HCV polymerase inhibitory activity (IC50), 1b, type 1b enzyme 0.5 μg/ml, 25° C., 60 min
[6] = HCV polymerase inhibitory activity (IC50), 1a, type 1a enzyme 1.5 μg/ml, 25° C., 60 min

Structure (SMILES) | IC50 [1, 3] [nM] | IC50 [2, 4] [nM] | IC50 [1, 5] [nM] | IC50 [2, 6] [nM]
CCC(F)(F)c1ccc(CNC(=O)[C@H]2CN(c3cnc4cncnc4n3)CCN2S(=O)(=O)c2ccc(-c3cccc(OCC(=O)O)c3)cc2)cc1 [Example 732, (4′-{(R)-2-[4-(1,1-difluoro-propyl)-benzylcarbamoyl]-4-pteridin-7-yl-piperazine-1-sulfonyl}-biphenyl-3-yloxy)-acetic acid] | < 100 | < 100 |  | 
CCC(CC)c1ccc(CNC(=O)C2CN(C(C)=O)CCN2S(=O)(=O)c2ccc(C(C)C)cc2)cc1 (stereo not shown) [Example 163, 4-acetyl-1-(4-isopropyl-benzenesulfonyl)-piperazine-2-carboxylic acid 4-(1-ethyl-propyl)-benzylamide] |  |  | 100 to 1000 | 100 to 1000
O=C(NCc1ccc(OC(F)(F)F)cc1)[C@H]1CN(c2nc3nc(OC(F)F)ncc3s2)CCN1S(=O)(=O)c1ccc(OC(F)(F)F)cc1 [Example 1087, (R)-4-(5-difluoromethoxy-thiazolo[4,5-d]pyrimidin-2-yl)-1-(4-trifluoromethoxy-benzenesulfonyl)-piperazine-2-carboxylic acid 4-trifluoromethoxy-benzylamide] | < 100 | < 100 |  | 
CCCn1ccc(CNC(=O)[C@H]2CN(c3cnc4cncnc4n3)CCN2S(=O)(=O)c2ccc(OC(F)(F)F)cc2)cc1=O [Example 680, (R)-4-pteridin-7-yl-1-(4-trifluoromethoxy-benzenesulfonyl)-piperazine-2-carboxylic acid (2-oxo-1-propyl-1,2-dihydro-pyridin-4-ylmethyl)-amide] | 100 to 1000 | > 1000 |  | 
O=C(NCc1ccc(Br)cc1)[C@H]1CN(c2cnc3cncnc3n2)CCN1S(=O)(=O)c1ccc(OC(F)(F)F)cc1 [Example 653, (R)-4-pteridin-7-yl-1-(4-trifluoromethoxy-benzenesulfonyl)-piperazine-2-carboxylic acid 4-bromo-benzylamide] |  |  | < 100 | < 100
CCC(F)(F)c1ccc(CNC(=O)[C@H]2CN(C(=O)Cn3nnc(-c4ccccc4)n3)CCN2S(=O)(=O)c2ccc(OC(F)(F)F)cc2)cc1 [Example 479, (R)-4-[2-(5-phenyl-tetrazol-2-yl)-acetyl]-1-(4-trifluoromethoxy-benzenesulfonyl)-piperazine-2-carboxylic acid 4-(1,1-difluoro-propyl)-benzylamide] |  |  | < 100 | < 100
O=C(NCc1ccc(OC(F)F)cc1)[C@H]1CN(c2nc3nc(Cl)ncc3s2)CCN1S(=O)(=O)c1ccc(C(F)(F)F)cc1 [Example 968, (R)-4-(5-chloro-thiazolo[4,5-d]pyrimidin-2-yl)-1-(4-trifluoromethyl-benzenesulfonyl)-piperazine-2-carboxylic acid 4-difluoromethoxy-benzylamide] | < 100 | < 100 |  | 
CCC(F)(F)c1ccc(CNC(=O)[C@H]2CN(c3cnc4cncnc4n3)CCN2S(=O)(=O)c2ccc(-c3ccccc3O)cc2)cc1 [Example 724, (R)-1-(2′-hydroxy-biphenyl-4-sulfonyl)-4-pteridin-7-yl-piperazine-2-carboxylic acid 4-(1,1-difluoro-propyl)-benzylamide] | < 100 | < 100 |  | 
CC(C)c1ccc(S(=O)(=O)N2CCN(C(N)=S)CC2C(=O)NCc2ccc(C(F)(F)F)cc2)cc1 (stereo not shown) [Example 111, 1-(4-isopropyl-benzenesulfonyl)-4-thiocarbamoyl-piperazine-2-carboxylic acid 4-trifluoromethyl-benzylamide] |  |  | > 1000 | > 1000
CCC(F)(F)c1ccc(CNC(=O)[C@H]2CN(c3nc4cn[nH]c(=O)c4s3)CCN2S(=O)(=O)c2ccc(C(F)(F)F)cc2)cc1 [Example 900, (R)-4-(7-oxo-6,7-dihydro-thiazolo[4,5-d]pyridazin-2-yl)-1-(4-trifluoromethyl-benzenesulfonyl)-piperazine-2-carboxylic acid 4-(1,1-difluoro-propyl)-benzylamide] | < 100 | < 100 |  | 
O=C(NCc1ccc2ccccc2c1)[C@H]1CN(c2nc3cn[nH]c(=O)c3s2)CCN1S(=O)(=O)c1ccc(OC(F)(F)F)cc1 [Example 901, (R)-4-(7-oxo-6,7-dihydro-thiazolo[4,5-d]pyridazin-2-yl)-1-(4-trifluoromethoxy-benzenesulfonyl)-piperazine-2-carboxylic acid (naphthalen-2-ylmethyl)-amide] | < 100 | < 100 |  | 
O=C(NCc1ccc(OC(F)F)cc1F)[C@H]1CN(c2nc3ncncc3s2)CCN1S(=O)(=O)c1ccc(OC(F)(F)F)cc1 [Example 998, (R)-4-thiazolo[4,5-d]pyrimidin-2-yl-1-(4-trifluoromethoxy-benzenesulfonyl)-piperazine-2-carboxylic acid 4-difluoromethoxy-2-fluoro-benzylamide] | < 100 | < 100 |  | 
CCC(F)(F)c1ccc(CNC(=O)[C@H]2CN(c3cnc4cnccc4n3)CCN2S(=O)(=O)c2ccc(C(C)(C)C)cc2)cc1 [Example 714, (R)-1-(4-tert-butyl-benzenesulfonyl)-4-pyrido[3,4-b]pyrazin-2-yl-piperazine-2-carboxylic acid 4-(1,1-difluoro-propyl)-benzylamide] | < 100 | < 100 |  | 
CC(=O)N1CCN(S(=O)(=O)c2ccc(C(C)C)cc2)[C@@H](C(=O)NCCN2CCCCC2)C1 [Example 402, (R)-4-acetyl-1-(4-isopropyl-benzenesulfonyl)-piperazine-2-carboxylic acid (2-piperidin-1-yl-ethyl)-amide] |  |  | > 1000 | > 1000
CCCc1ccc(CNC(=O)[C@H]2CN(c3cnc(C(=O)O)cn3)CCN2S(=O)(=O)c2ccc(Br)s2)cc1 [Example 699, (R)-4-(5-bromo-thiophene-2-sulfonyl)-3-(4-propyl-benzylcarbamoyl)-3,4,5,6-tetrahydro-2H-[1,2′]bipyrazinyl-5′-carboxylic acid] | < 100 | < 100 |  | 
Cc1n[nH]c(=O)c2sc(N3CCN(S(=O)(=O)c4ccc(C(F)(F)F)cc4)[C@@H](C(=O)NCc4ccc(OC(F)(F)F)cc4)C3)nc12 [Example 893, (R)-4-(4-methyl-7-oxo-6,7-dihydro-thiazolo[4,5-d]pyridazin-2-yl)-1-(4-trifluoromethyl-benzenesulfonyl)-piperazine-2-carboxylic acid 4-trifluoromethoxy-benzylamide] | < 100 | < 100 |  | 
CC(C)c1ccc(CNC(=O)[C@H]2CN(c3ncc(C(=O)O)c(O)n3)CCN2S(=O)(=O)c2ccc(C(F)(F)F)cc2)cc1 [Example 357, 4-hydroxy-2-[(R)-3-(4-isopropyl-benzylcarbamoyl)-4-(4-trifluoromethyl-benzenesulfonyl)-piperazin-1-yl]-pyrimidine-5-carboxylic acid] |  |  | 100 to 1000 | > 1000
O=C(O)CCc1cncc2ncc(N3CCN(S(=O)(=O)c4ccc(OC(F)(F)F)cc4)[C@@H](C(=O)NCc4ccc(OC(F)(F)F)cc4)C3)nc12 [Example 808, 3-{2-[(R)-4-(4-trifluoromethoxy-benzenesulfonyl)-3-(4-trifluoromethoxy-benzylcarbamoyl)-piperazin-1-yl]-pyrido[3,4-b]pyrazin-8-yl}-propionic acid] | < 100 | < 100 |  | 
CCC(F)(F)c1ccc(CNC(=O)[C@H]2CN(c3nc(C)ns3)CCN2S(=O)(=O)c2ccc(OC(F)(F)F)cc2)cc1 [Example 576, (R)-4-(3-methyl-[1,2,4]thiadiazol-5-yl)-1-(4-trifluoromethoxy-benzenesulfonyl)-piperazine-2-carboxylic acid 4-(1,1-difluoro-propyl)-benzylamide] |  |  | < 100 | < 100
Cc1nc(N2CCN(S(=O)(=O)c3ccc(OC(F)(F)F)cc3)[C@@H](C(=O)NCc3ccc(C(C)C)cc3)C2)sc1C(=O)O [Example 322, 2-[(R)-3-(4-isopropyl-benzylcarbamoyl)-4-(4-trifluoromethoxy-benzenesulfonyl)-piperazin-1-yl]-4-methyl-thiazole-5-carboxylic acid] |  |  | < 100 | < 100
CC(=O)Nc1ccc(S(=O)(=O)N2CCN(C(C)=O)CC2C(=O)NCc2ccc(C(F)(F)F)cc2)cc1 (stereo not shown) [Example 39, 4-acetyl-1-(4-acetylamino-benzenesulfonyl)-piperazine-2-carboxylic acid 4-trifluoromethyl-benzylamide] |  |  | > 1000 | > 1000
CCCc1ccc(CNC(=O)[C@H]2CN(c3cnc(C(=O)OC)c(N)n3)CCN2S(=O)(=O)c2ccc(OC(F)(F)F)cc2)cc1 [Example 507, (R)-6′-amino-3-(4-propyl-benzylcarbamoyl)-4-(4-trifluoromethoxy-benzenesulfonyl)-3,4,5,6-tetrahydro-2H-[1,2′]bipyrazinyl-5′-carboxylic acid methyl ester] |  |  | < 100 | < 100
CCCc1ccc(CNC(=O)[C@H]2CN(C(C)=O)CCN2S(=O)(=O)c2ccc(OC(F)(F)F)cc2)cn1 [Example 718, (R)-4-acetyl-1-(4-trifluoromethoxy-benzenesulfonyl)-piperazine-2-carboxylic acid (6-propyl-pyridin-3-ylmethyl)-amide] | 100 to 1000 | > 1000 |  | 
